Experiment [1] deals with T1, KRASwt (Homo sapiens, UniProt P01116).
T1 construct: made in house; host or cells: E. coli BL21 (DE3)
Kind of experiment: Bio-Biochem-PPI-HTRF Ras-SOS1 interaction assay (KRAS wt). The format is biochemical. The settings on record: 5 nM. In a few lines: (§1)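 HTRF readout (ex 337 nm; em 620 and 665 nm) after ≥~10 min incubation; IC50 fitted from 665/620 ratio. GST-K-Ras wt or G12D plus anti-GST-Eu(K), His-hSOS1 plus anti-6His-XL665; duplicate dilutions, 10 μM top.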
(TR-FRET usually uses a lanthanide donor and a delayed reading to cut background.)

Experiment [2] addresses T2, KRASG12D (Homo sapiens, UniProt P01116, G12D).
T2 construct: made in house; host or cells: E. coli BL21 (DE3)
Kind of experiment: Bio-Biochem-PPI-HTRF Ras-SOS1 interaction assay (KRAS G12D). The format is biochemical. The settings on record: 5 nM. In a few lines: as §1

Each structure is given as a SMILES string.

This note sets out measurements from patent US20240109918A1, “HETEROCYCLIC COMPOUNDS AND USES THEREOF” (Kumquat Biosciences Inc., priority 2022, published 2024).

T2 sequence (P01116 1-188 isoform P01116-2 G12D): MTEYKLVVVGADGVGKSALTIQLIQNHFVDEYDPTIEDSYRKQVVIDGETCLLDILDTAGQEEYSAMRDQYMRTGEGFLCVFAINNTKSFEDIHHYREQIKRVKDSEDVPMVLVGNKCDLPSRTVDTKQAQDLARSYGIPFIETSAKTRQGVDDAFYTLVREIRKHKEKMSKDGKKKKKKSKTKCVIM
T1 sequence (P01116 1-188 isoform P01116-2): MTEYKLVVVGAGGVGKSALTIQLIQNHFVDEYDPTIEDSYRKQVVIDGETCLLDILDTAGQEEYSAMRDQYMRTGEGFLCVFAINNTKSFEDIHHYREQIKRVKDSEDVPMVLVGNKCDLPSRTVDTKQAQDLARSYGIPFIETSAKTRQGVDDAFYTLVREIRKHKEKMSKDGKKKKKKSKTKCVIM

For `N#Cc1c(N)sc2c(F)ccc(-c3c(Cl)cc4c(N5CCCCC6(CN(C(=O)/C=C/C(F)(F)F)C6)C5)nc(OC[C@@]56CCCN5C[C@H](F)C6)nc4c3F)c12` [compound 207, 2-amino-4-(6-chloro-8-fluoro-2-(((2R,7aS)-2-fluorotetrahydro-1H-pyrrolizin-7a(5H)-yl)methoxy)-4-(2-((E)-4,4,4-trifluorobut-2-enoyl)-2,6-diazaspiro [3.6]decan-6-yl)quinazolin-7-yl)-7-fluorobenzo[b]thiophene-3-carbonitrile], the 50% inhibitory concentration (IC50) in experiment [1] and in experiment [2] was less than 5 µM throughout.

Consider `N#Cc1c(N)sc2c(F)ccc(-c3c(Cl)cc4c(N5CCCCC6(CN(C(=O)c7ccnn7CC(F)F)C6)C5)nc(OC[C@@]56CCCN5C[C@H](F)C6)nc4c3F)c12` [compound 208, 2-amino-4-(6-chloro-4-(2-(1-(2,2-difluoroethyl)-1H-pyrazole-5-carbonyl)-2,6-diazaspiro[3.6]decan-6-yl)-8-fluoro-2-(((2R,7aS)-2-fluorotetrahydro-1H-pyrrolizin-7a(5H)-yl)methoxy)quinazolin-7-yl)-7-fluorobenzo[b]thiophene-3-carbonitrile], for which the concentration for half-maximal inhibition (IC50) in experiment [1] and in experiment [2] was less than 5 µM in each case.

Turning to `Cc1cc(C(=O)N2CC3(CCCCN(c4nc(OC[C@@]56CCCN5C[C@H](F)C6)nc5c(F)c(-c6ccc(F)c7sc(N)c(C#N)c67)c(Cl)cc45)C3)C2)nn1C(F)F` [compound 209, 2-amino-4-(6-chloro-4-(2-(1-(difluoromethyl)-5-methyl-1H-pyrazole-3-carbonyl)-2,6-diazaspiro[3.6]decan-6-yl)-8-fluoro-2-(((2R,7aS)-2-fluorotetrahydro-1H-pyrrolizin-7a(5H)-yl)methoxy)quinazolin-7-yl)-7-fluorobenzo[b]thiophene-3-carbonitrile], the IC50 in experiment [1] and in experiment [2] was less than 5 µM each time.

For the molecule `N#Cc1c(N)sc2c(F)ccc(-c3c(Cl)cc4c(N5CCCCC6(CN(C(=O)C7CCC7(F)F)C6)C5)nc(OC[C@@]56CCCN5C[C@H](F)C6)nc4c3F)c12` (stereo partly drawn) [compound 210, 2-amino-4-(6-chloro-4-(2-(2,2-difluorocyclobutane-1-carbonyl)-2,6-diazaspiro[3.6]decan-6-yl)-8-fluoro-2-(((2R,7aS)-2-fluorotetrahydro-1H-pyrrolizin-7a(5H)-yl)methoxy)quinazolin-7-yl)-7-fluorobenzo[b]thiophene-3-carbonitrile], the IC50 in experiment [1] and in experiment [2] was less than 5 µM throughout.

In the case of `N#Cc1c(N)sc2c(F)ccc(-c3c(Cl)cc4c(N5CCCC6(CN(C(=O)N7CC[C@H]7C#N)C6)C5)nc(OC[C@@]56CCCN5C[C@H](F)C6)nc4c3F)c12` [compound 211, (2S)-1-(6-(7-(2-amino-3-cyano-7-fluorobenzo[b]thiophen-4-yl)-6-chloro-8-fluoro-2-(((2R,7aS)-2-fluorotetrahydro-1H-pyrrolizin-7a(5H)-yl)methoxy)quinazolin-4-yl)-2,6-diazaspiro[3.5]nonane-2-carbonyl)azetidine-2-carbonitrile], the IC50 in experiment [1] and in experiment [2] was less than 5 µM in each case.

For the molecule `C[C@H](Oc1nc(N2CCCC3(CN(C(=O)N4CC(F)(F)C4)C3)C2)c2cc(Cl)c(-c3ccc(F)c4sc(N)c(C#N)c34)c(F)c2n1)[C@@H]1CCCN1C` [compound 212, 2-amino-4-(6-chloro-4-(2-(3,3-difluoroazetidine-1-carbonyl)-2,6-diazaspiro[3.5]nonan-6-yl)-8-fluoro-2-((S)-1-((S)-1-methylpyrrolidin-2-yl)ethoxy)quinazolin-7-yl)-7-fluorobenzo[b]thiophene-3-carbonitrile], the IC50 in experiment [1] and in experiment [2] was less than 5 µM each time.

Take `CC(F)(F)C(=O)N1CC2(CCCCN(c3nc(OC[C@@]45CCCN4C[C@H](F)C5)nc4c(F)c(-c5ccc(F)c6sc(N)c(C#N)c56)c(Cl)cc34)C2)C1` [compound 213, 2-amino-4-(6-chloro-4-(2-(2,2-difluoropropanoyl)-2,6-diazaspiro[3.6]decan-6-yl)-8-fluoro-2-(((2R,7aS)-2-fluorotetrahydro-1H-pyrrolizin-7a(5H)-yl)methoxy)quinazolin-7-yl)-7-fluorobenzo[b]thiophene-3-carbonitrile]: the half-maximal inhibitory concentration (IC50) in experiment [1] and in experiment [2] was less than 5 µM throughout.

As to `N#Cc1c(N)sc2c(F)ccc(-c3c(Cl)cc4c(N5CCC(CO)CC6(CNC6)C5)nc(OC[C@@]56CCCN5C[C@H](F)C6)nc4c3F)c12` (stereo partly drawn) [compound 214, 2-amino-4-(6-chloro-8-fluoro-2-(((2R,7aS)-2-fluorotetrahydro-1H-pyrrolizin-7a(5H)-yl)methoxy)-4-(9-(hydroxymethyl)-2,6-diazaspiro[3.6]decan-6-yl)quinazolin-7-yl)-7-fluorobenzo[b]thiophene-3-carbonitrile], the IC50 in experiment [1] and in experiment [2] was less than 5 µM each time.

In the case of `C#Cc1c(F)ccc2cc(O)cc(-c3ncc4c(N5CCCCC6(CN(C(=O)[C@H]7CC7(F)F)C6)C5)nc(OC[C@@]56CCCN5C[C@H](F)C6)nc4c3F)c12` [compound 215, ((R)-2,2-difluorocyclopropyl) (6-(7-(8-ethynyl-7-fluoro-3-hydroxynaphthalen-1-yl)-8-fluoro-2-(((2R,7aS)-2-fluorotetrahydro-1H-pyrrolizin-7a(5H)-yl)methoxy)pyrido[4,3-d]pyrimidin-4-yl)-2,6-diazaspiro[3.6]decan-2-yl)methanone], the IC50 in experiment [1] and in experiment [2] was less than 5 µM throughout.

For `N#CCC1(C(=O)N2CC3(CCCCN(c4nc(OC[C@@]56CCCN5C[C@H](F)C6)nc5c(F)c(-c6ccc(F)c7sc(N)c(C#N)c67)c(Cl)cc45)C3)C2)CCC1` [compound 216, 2-amino-4-(6-chloro-4-(2-(1-(cyanomethyl)cyclobutane-1-carbonyl)-2,6-diazaspiro[3.6]decan-6-yl)-8-fluoro-2-(((2R,7aS)-2-fluorotetrahydro-1H-pyrrolizin-7a(5H)-yl)methoxy)quinazolin-7-yl)-7-fluorobenzo[b]thiophene-3-carbonitrile], the 50% inhibitory concentration (IC50) in experiment [1] and in experiment [2] was less than 5 µM throughout.

With `N#Cc1c(N)sc2c(F)ccc(-c3c(Cl)cc4c(N5CCOC6(CN(C(=O)[C@@H]7CC7(F)F)C6)C5)nc(OC[C@@]56CCCN5C[C@H](F)C6)nc4c3F)c12` [compound 217, 2-amino-4-(6-chloro-4-(2-((S)-2,2-difluorocyclopropane-1-carbonyl)-5-oxa-2,8-diazaspiro[3.5]nonan-8-yl)-8-fluoro-2-(((2R,7aS)-2-fluorotetrahydro-1H-pyrrolizin-7a(5H)-yl)methoxy)quinazolin-7-yl)-7-fluorobenzo[b]thiophene-3-carbonitrile], the IC50 in experiment [1] and in experiment [2] was less than 5 µM each time.

Take `CC1(O)CCN(c2nc(OC[C@@]34CCCN3C[C@H](F)C4)nc3c(F)c(-c4ccc(F)c5sc(N)c(C#N)c45)c(Cl)cc23)CC2(CN(C(=O)[C@@H]3CC3(F)F)C2)C1` (stereo partly drawn) [compound 218, 2-amino-4-(6-chloro-4-(2-((S)-2,2-difluorocyclopropane-1-carbonyl)-9-hydroxy-9-methyl-2,6-diazaspiro [3.6]decan-6-yl)-8-fluoro-2-(((2R,7aS)-2-fluorotetrahydro-1H-pyrrolizin-7a(5H)-yl)methoxy)quinazolin-7-yl)-7-fluorobenzo[b]thiophene-3-carbonitrile]: the IC50 in experiment [1] and in experiment [2] was less than 5 µM each time.

As for `N#Cc1c(N)sc2c(F)ccc(-c3c(Cl)cc4c(N5CC6(CN(C(=O)C7CC7(F)F)C6)C5)nc(OC[C@@]56CCCN5C[C@H](F)C6)nc4c3F)c12` (stereo partly drawn) [compound 219, 2-amino-4-(6-chloro-4-(6-(2,2-difluorocyclopropane-1-carbonyl)-2,6-diazaspiro[3.3]heptan-2-yl)-8-fluoro-2-(((2R,7aS)-2-fluorotetrahydro-1H-pyrrolizin-7a(5H)-yl)methoxy)quinazolin-7-yl)-7-fluorobenzo[b]thiophene-3-carbonitrile], the IC50 in experiment [1] and in experiment [2] was less than 5 µM in each case.

With `Cn1cc(C(=O)N2CC3(CCCCN(c4nc(OC[C@@]56CCCN5C[C@H](F)C6)nc5c(F)c(-c6ccc(F)c7sc(N)c(C#N)c67)c(Cl)cc45)C3)C2)c(C(F)F)n1` [compound 220, 2-amino-4-(6-chloro-4-(2-(3-(difluoromethyl)-1-methyl-1H-pyrazole-4-carbonyl)-2,6-diazaspiro[3.6]decan-6-yl)-8-fluoro-2-(((2R,7aS)-2-fluorotetrahydro-1H-pyrrolizin-7a(5H)-yl)methoxy)quinazolin-7-yl)-7-fluorobenzo[b]thiophene-3-carbonitrile], the half-maximal inhibitory concentration (IC50) in experiment [1] and in experiment [2] was less than 5 µM each time.

Turning to `CC(C)[C@H](N)C(=O)N1CC2(CCCCN(c3nc(OC[C@@]45CCCN4C[C@H](F)C5)nc4c(F)c(-c5ccc(F)c6sc(N)c(C#N)c56)c(Cl)cc34)C2)C1` [compound 221, 4-(4-(2-(L-valyl)-2,6-diazaspiro[3.6]decan-6-yl)-6-chloro-8-fluoro-2-(((2R,7aS)-2-fluorotetrahydro-1H-pyrrolizin-7a(5H)-yl)methoxy)quinazolin-7-yl)-2-amino-7-fluorobenzo[b]thiophene-3-carbonitrile], the IC50 in experiment [1] and in experiment [2] was less than 5 µM in each case.

For the molecule `N#Cc1c(N)sc2c(F)ccc(-c3c(Cl)cc4c(N5CCCCC6(CN(C(=O)C(C7CC7)N7CCOCC7)C6)C5)nc(OC[C@@]56CCCN5C[C@H](F)C6)nc4c3F)c12` (stereo partly drawn) [compound 223, 2-amino-4-(6-chloro-4-(2-(2-cyclopropyl-2-morpholinoacetyl)-2,6-diazaspiro[3.6]decan-6-yl)-8-fluoro-2-(((2R,7aS)-2-fluorotetrahydro-1H-pyrrolizin-7a(5H)-yl)methoxy)quinazolin-7-yl)-7-fluorobenzo[b]thiophene-3-carbonitrile], the IC50 in experiment [1] and in experiment [2] was less than 5 µM throughout.

A word on the IC50: it is the point on the concentration scale where inhibition reaches its midpoint. Read a low IC50 as inhibition by little substance.
